In US8450357B2, “Compositions comprising an aryl pyrazole and/or a formamidine, methods and uses thereof” (Merial Limited, priority 2008, dated 2013):

Assays:
[1] = test system: Ctenocephalides felis; assay: Study D: flea efficacy of Compound 1 and fipronil in cats; type: in vivo
Procedure: A fourth clinical study was conducted to determine the efficacy of topically administered Compound 1 and fipronil against induced infections of Ctenocephalides felis in cats. Twenty four cats (17 males, 7 females) were included in the study. Six replicates of four cats each were formed based on decreasing Day −5 flea counts. Within replicates, cats were randomly allocated to Treatment Groups 1, 2, 3 or 4, respectively, by using a die: Group 1—untreated (vehicle control); Group 2—Compound 1 (10 mg/kg); Group 3—Compound 1 (20 mg/kg); Group 4—fipronil (10 mg/kg). Treatment was performed by topical administration of the formulations in the midline of the neck, between the base of the skull and the shoulder blades in a single spot after parting the hair. Animals were observed hourly for approximately four hours following treatment.
The cats were infested with approximately 100 Ct. felis fleas each during acclimation on Day −6 for allocation purposes, and on Days −1, 14, 21, 28, 35 and 42 for treatment efficacy evaluation purposes. The fleas were removed by combing each cat approximately 24 hours following each infestation except for the Day −1 infestation which was followed by flea removal and count on Day 1 (˜48 hours following infestation).

[2] = test system: Rhipicephalus sanguineus ticks; assay: Study C: tick efficacy of Compound 1 and fipronil alone and with amitraz in dogs; type: in vivo
Procedure: The effectiveness of Compound 1 alone, fipronil alone, Compound 1 in combination with amitraz, or fipronil in combination with amitraz, when administered once as topical solutions to dogs against induced infestations of Rhipicephalus sanguineus and Ctenocephalides felis were determined in a third clinical study. Thirty-six beagles (18 males and 18 females) were selected for the study. Six replicates of 6 animals each were formed. Treatment Group 1 dogs were treated with a placebo. Treatment Groups 2, 3, 4, 5 and 6 received their respective treatments as a topical spot-on application once on Day 0. Each formulation included diethyleneglycol monoethyl ether (transcutol) as carrier. The Treatment Groups were: Treatment Group 2: fipronil at 0.1 mL/kg body weight (10 mg/kg); Treatment Group 3: Compound 1 at 0.1 mL/kg (10 mg/kg) body weight; Treatment Group 4: Compound 1 at 0.2 mL/kg (20 mg/kg) body weight; Treatment Group 5: Compound 1 at 0.1 mL/kg (10 mg/kg) body weight plus amitraz at 0.04 mL/kg (8 mg/kg) body weight; Treatment Group 6: fipronil at 0.1 mL/kg (10 mg/kg) body weight plus amitraz at 0.04 mL/kg (8 mg/kg) body weight. Treatment was applied by parting the hair and applying the formulation(s) directly onto the skin on one spot at the midline of the neck, except for Groups 4, 5 and 6 which were applied in approximately equal volumes on two spots, one spot between the base of the skull and the shoulder blades and the other at the front of the shoulder blades.
All dogs were infested with approximately 50 Rhipicephalus sanguineus ticks on Days −1, 7, 14, 21, 28, 35, 42, 49 and 56. Dogs were also infested with approximately 100 Ctenocephalides felis fleas on Days −1, 8, 15, 22, 29, 36, 43, 50 and 57. […] Tables 8 and 9 below show the % efficacy of formulations comprising fipronil at 0.1 ml/kg of body weight, Compound 1 at […], and fipronil and Compound 1 both at 10 ml/kg in combination with amitraz at 0.04 ml/kg of body weight compared to control group without active compounds. The percent reduction in flea counts of the treated groups with respect to the Control group over the study is shown in FIG. 14.

SMILES	% Efficacy against fleas ([1]; Day 1, 10 mg/kg) [%]	% Efficacy against fleas ([1]; Day 15, 10 mg/kg) [%]	% Efficacy against fleas ([1]; Day 22, 10 mg/kg) [%]	% Efficacy against fleas ([1]; Day 29, 10 mg/kg) [%]	% Efficacy against fleas ([1]; Day 36, 10 mg/kg) [%]	% Efficacy against fleas ([1]; Day 43, 10 mg/kg) [%]	% Efficacy (Tick Efficacy) ([2]; Day 1, 10 mg/kg) [%]	% Efficacy (Tick Efficacy) ([2]; Day 2, 10 mg/kg) [%]	% Efficacy (Tick Efficacy) ([2]; Day 8, 10 mg/kg) [%]	% Efficacy (Tick Efficacy) ([2]; Day 9, 10 mg/kg) [%]	% Efficacy (Tick Efficacy) ([2]; Day 15, 10 mg/kg) [%]	% Efficacy (Tick Efficacy) ([2]; Day 16, 10 mg/kg) [%]	% Efficacy (Tick Efficacy) ([2]; Day 23, 10 mg/kg) [%]	% Efficacy (Tick Efficacy) ([2]; Day 30, 10 mg/kg) [%]	% Efficacy (Tick Efficacy) ([2]; Day 37, 10 mg/kg) [%]	% Efficacy (Tick Efficacy) ([2]; Day 44, 10 mg/kg) [%]	% Efficacy (Tick Efficacy) ([2]; Day 51, 10 mg/kg) [%]	% Efficacy (Tick Efficacy) ([2]; Day 58, 10 mg/kg) [%]	other results
N#Cc1nn(-c2c(Cl)cc(C(F)(F)F)cc2Cl)c(N)c1[S+]([O-])C(F)(F)F (stereo not drawn) [fipronil, 5-amino-3-cyano-1-(2,6-dichloro-4-trifluoromethylphenyl)-4-trifluoromethylsulfinylpyrazole]	97.96	100	100	95.59	99.24	97.81	88.6	90.9	99.4	100	100	100	98.8	100	99	98.2	92.8	82.7	
Cc1c([S+]([O-])C(F)(Cl)Cl)c(C#N)nn1-c1c(F)cc(C(F)(F)F)cc1Cl (stereo not drawn) [Compound 1, 3-cyano-1-(2-chloro-6-fluoro-4-trifluoromethylphenyl)-4-dichlorofluoromethylsulfinyl-5-methyl-1H-pyrazole]	99.84	99.81	100	100	99.43	97.28	88.1	96.8	93.5	97.7	98.5	100	98.4	99	94.3	92.4	84.7	83.1	% Efficacy against fleas ([1]; Day 1, 20 mg/kg): 100%; % Efficacy against fleas ([1]; Day 15, 20 mg/kg): 100%; % Efficacy against fleas ([1]; Day 22, 20 mg/kg): 100%; % Efficacy against fleas ([1]; Day 29, 20 mg/kg): 100%; % Efficacy against fleas ([1]; Day 36, 20 mg/kg): 100%; % Efficacy against fleas ([1]; Day 43, 20 mg/kg): 100%; % Efficacy (Tick Efficacy) ([2]; Day 1, 20 mg/kg): 98.6%; % Efficacy (Tick Efficacy) ([2]; Day 2, 20 mg/kg): 98.9%; % Efficacy (Tick Efficacy) ([2]; Day 8, 20 mg/kg): 98.6%; % Efficacy (Tick Efficacy) ([2]; Day 9, 20 mg/kg): 100%; % Efficacy (Tick Efficacy) ([2]; Day 15, 20 mg/kg): 99.3%; % Efficacy (Tick Efficacy) ([2]; Day 16, 20 mg/kg): 100%; % Efficacy (Tick Efficacy) ([2]; Day 23, 20 mg/kg): 100%; % Efficacy (Tick Efficacy) ([2]; Day 30, 20 mg/kg): 99.5%; % Efficacy (Tick Efficacy) ([2]; Day 37, 20 mg/kg): 98.6%; % Efficacy (Tick Efficacy) ([2]; Day 44, 20 mg/kg): 92.3%; % Efficacy (Tick Efficacy) ([2]; Day 51, 20 mg/kg): 86.5%; % Efficacy (Tick Efficacy) ([2]; Day 58, 20 mg/kg): 87.4%
